This is an account of results in US20230168203A9, “Pyrogallarene Chelating and Sequestering Agents” (Kinsey Spiel, priority 2018, published 2023).

Like-named read-outs stand apart in the source and are kept apart here.

A short description of data set [1]: Example A: colour of C-propyl pyrogallol[4]arene colloid in deionized water after adding metal chloride salts (chelation indicator). Here is the method:
A stock solution of was made of 400 mg of purified C-propyl pyrogallol[4]arene dissolved in 20 mL of acetone. […] Upon dispensing this aliquot the aqueous solutions were a colorless white colloid. The colloid appeared to be somewhat translucent. Upon dispensing NaCl into one colorless colloid the color was unchanged. Then various chloride salts of metals were added to colorless C-propyl pyrogallol[4]arene colloids. Upon adding ZnCl2 the colloid turned light brown. Upon adding MgCl2 the colloid turned pink. Upon adding Fe(III)Cl3 the colloid turned grey. Upon adding Cu(I)Cl the colloid turned brown. Upon adding CaCl2 the colloid turned pink. Upon adding Cr(III)Cl3 the colloid turned green. Upon adding BaCl2.2H2O the colloid turned pink. Upon adding MnCl2 the colloid turned salmon. Upon adding NiCl2 the colloid turned salmon.
In Example A, half of the metal salts, ZnCl2, MgCl2, CaCl2, and BaClz.2H2O, were colorless in their solid form, before adding them to the colloid. Pyrogallarene chelation is evident as a colorless salts are added to a colorless colloid and varying colors result. Five of the salts were colored in their solid form. […] Although Fe(III)Cl3 was brownish red in its solid form the resulting colloid solution was grey. Cu(I)Cl was green in its solid form but the resulting colloid solution was brown. NiCl2 was green in its solid form but the resulting colloid solution was pink.

Data set [2] is described as follows: Solid state contact of nearly dry pyrogallarenes with stainless steel spatula. The note with it: freshly-synthesized. The text has this:
Pyrogallarenes, including C-methyl Pyrogallol[4]arene, C-ethyl Pyrogallol[4]arene, and C-propyl pyrogallol[4]arene, have a high affinity for metals, even in a homogeneous solid state reaction. For example, a stainless steel spatula in contact with these freshly-synthesized and not completely dry (nearly dry) pyrogallarenes results in a color shift from white to blue where the spatula came in contact with the pyrogallol[4]arene. This example may illustrate, as in previous examples, that a chelation reaction has occurred.

Data set [3] in a line: Resilience of chelated precipitate at high temperature. Format: physicochemical. Here is the method:
Unlike some solids where solubility increases rapidly with increasing temperature the pyrogallarene chelated precipitate is resilient at high temperature. […] A chelate made from C-propyl pyrogallol[4]arene and a variety of metals is also undissolved at 80° C. […] However, heterogeneous pyrogallol[4]arene chelation complexes appear to dissolve minimally into aqueous solutions, limited by a low Ksp as discussed above.

Data set [4] is described as follows: Example B: precipitate formation of C-ethyl pyrogallarene colloid (from saturated methanol) after adding metal chlorides. The text has this: Some metals required more time for a precipitate to form.
A short description of data set [5]: Example C: C-ethyl pyrogallol[4]arene colloid (from acetone stock) after adding chloride salts. Here is the method:
Upon dispensing this aliquot the aqueous solutions were colorless white colloids. Various chloride salts were added to the solution including […], Tungsten(IV) chloride, Strontium chloride, Titanium chloride, Zirconyl (IV) chloride octahydrate, Aluminum chloride, and Hafnium chloride. All metal salts were colorless except Tungsten(IV) chloride, which was light green, and Titanium chloride, which was a yellow solution. […] All other colloids appeared unchanged immediately after the addition of the metal. This may be a result of no chelation or slow reaction kinetics for the chelated complex. Finally, one additional salt, colorless Gadolinium Chloride, was tested. […] As stated previously, various examples may indicate chelation and sequestration by pyrogallarenes on a PPM level, owing to the solubility of various chloride salts. For example, PbCl2 is very poorly soluble in water.

How the values of data set [6] were obtained: A stock solution of was made of 100 mg of purified C-ethyl pyrogallol[4]arene dissolved in 20 mL of acetone. 1 mL aliquots of this stock solution were dispensed into vials containing 20 mL of water. Sample one contained TDS of 330, Ca of 30 ppm, Mg of 26 ppm, K of 1 ppm, Si of 15 ppm, bicarbonate of 360 ppm, Pb of <0.001, and a pH of 7.2. Sample two contained TDS of 222, Ca of 18 ppm, Mg of 15 ppm, K of 5.3 ppm, Si of 93 ppm, bicarbonate of 152 ppm, and a pH of 7.7. Sample three contained TDS of 44, Ca of 5 ppm, Mg of 1 ppm, K of 0 ppm, bicarbonate of 20 ppm, and a pH of 7.8.
This is another data set of the same source.

Data set [7] is described as follows: Heterogeneous chelation: solid pyrogallol[4]arene dispensed into unpurified aqueous solution.

For `CCCC1c2cc(c(O)c(O)c2O)C(CCC)c2cc(c(O)c(O)c2O)C(CCC)c2cc(c(O)c(O)c2O)C(CCC)c2cc1c(O)c(O)c2O` (centres unmarked) [C-propyl pyrogallol[4]arene], the solubility in water result is “only slightly soluble”. Also, in data set [1] (BaCl2.2H2O added), the colour of colloid result was “pink”. Moreover, the colour of colloid result in data set [1] (CaCl2 added) is given as “pink”. For the same molecule, the colour of colloid entry in data set [1] (Cr(III)Cl3 added) is reported as “green”. In addition, in data set [1] (Cu(I)Cl added), the colour of colloid entry was “brown”. Moreover, the colour of colloid entry in data set [1] (Fe(III)Cl3 added) was “grey”. In addition, in data set [1] (MgCl2 added), the colour of colloid result is “pink”. Further, in data set [1] (MnCl2 added), the colour of colloid result is “salmon”. The colour of colloid result in data set [1] (NaCl added) is given as “unchanged”. Also, the colour of colloid entry in data set [1] (NiCl2 added) is recorded as “salmon”. In data set [1] (ZnCl2 added), the colour of colloid result is listed as “light brown”. In data set [2], the “color shift where spatula came in contact” value is given as “white to blue”. In data set [3] (chelate with PbCl2, 80° C), the stability of chelate result was “stable and undissolved”. Besides, the stability of chelate result in data set [3] (chelate with a variety of metals, 80° C) is listed as “undissolved”.
As for `CC1c2cc(c(O)c(O)c2O)C(C)c2cc(c(O)c(O)c2O)C(C)c2cc(c(O)c(O)c2O)C(C)c2cc1c(O)c(O)c2O` (centres unmarked) [C-methyl Pyrogallol[4]arene], the “color shift where spatula came in contact” value in data set [2] is given as “white to blue”.
Turning to `CCC1c2cc(c(O)c(O)c2O)C(CC)c2cc(c(O)c(O)c2O)C(CC)c2cc(c(O)c(O)c2O)C(CC)c2cc1c(O)c(O)c2O` (centres unmarked) [C-ethyl pyrogallol[4]arene], the solubility in water result is on record as “mostly insoluble”. In addition, the precipitate formed entry in data set [4] (BaClz.2H2O, 24 hours later) was “white precipitate”. Moreover, in data set [4] (CaCl2 added, immediately), the precipitate formed result is given as “blue precipitate”. Moreover, the precipitate formed result in data set [4] (Cr(III)Cl3, 24 hours later) was “white precipitate”. The precipitate formed result in data set [4] (Cu(I)Cl, 24 hours later) is “grey precipitate”. Further, in data set [4] (NiClz, 24 hours later), the precipitate formed result is recorded as “white precipitate”. Moreover, the precipitate formed result in data set [4] (PbCl2 added, immediately) is on record as “blue precipitate”. The precipitate formed entry in data set [4] (ZnCl2 added, immediately) is “blue precipitate”. Moreover, the observation on colloid entry in data set [5] (Aluminum chloride added, immediately after addition) was “unchanged”. For the same molecule, the observation on colloid entry in data set [5] (Gadolinium Chloride added) is “purple precipitate”. Moreover, the observation on colloid entry in data set [5] (Hafnium chloride added) is recorded as “grey precipitate”. Further, the observation on colloid entry in data set [5] (Strontium chloride added) was “white precipitate”. Also, the observation on colloid result in data set [5] (Titanium chloride added, immediately after addition) is reported as “unchanged”. Moreover, the observation on colloid result in data set [5] (Tungsten(IV) chloride added, immediately after addition) is recorded as “unchanged”. For the same molecule, the observation on colloid result in data set [5] (Yttrium(II) chloride hydrate added) is listed as “purple precipitate”. In data set [5] (Zirconyl (IV) chloride octahydrate added), the observation on colloid result is “clear grey solution”. Also, the “observation on water sample” value in data set [6] (Sample four: pH 9.4) is recorded as “pink colored solution”. In data set [6] (Sample one: TDS 330, Ca 30 ppm, Mg 26 ppm, pH 7.2), the “observation on water sample” value is recorded as “dense blue precipitate”. In data set [6] (Sample three: TDS 44, Ca 5 ppm, Mg 1 ppm, pH 7.8, several days), the “observation on water sample” value is “did not produce a precipitate”. For the same molecule, the “observation on water sample” value in data set [6] (Sample two: TDS 222, Ca 18 ppm, Mg 15 ppm, pH 7.7, over a few minutes) is recorded as “diffuse blue precipitate”. The “color shift where spatula came in contact” value in data set [2] was “white to blue”. In addition, in data set [7] (solid in unpurified aqueous solution), the dissolution of solid result is “almost completely undissolved”. In data set [7] (solid, colorless compound in unpurified aqueous solution), the “shift of absorbance colour of solid” value was “blue”.
